Structures are written as SMILES. Active and inactive are the calls of the source.

A short description of test [1]: NIH-3T3 fibroblast cytotoxicity, dose response, cytotoxicity control, cell-based, fluorescence, Alamar Blue, secondary assay (AID 2327).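 Further: NIH-3T3 mouse fibroblasts cultured with fluconazole at 8 µg/mL.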 In kind it is functional.
A short description of test [2]: alpha-synuclein stem-loop luciferase translation blockers – H4 neuroglioma cells, luminescence, confirmation (AID 1988). In kind it is functional, cell-based.
Test [3] deals with Exodeoxyribonuclease V (Escherichia coli (strain K12), UniProt P04993+P07648+P08394). Briefly: RecBCD inhibition via phage-restricted bacterial growth – absorbance, V66 E. coli, mutant T4 phage, counter-screen for AddAB inhibitor project, dose response (AID 492957). In kind it is functional, cell-based, Escherichia coli str. K-12 substr. MG1655.
Test [4] has as its target Estrogen receptor beta (Homo sapiens, UniProt Q92731).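 Further: recombinant ER-beta bound to coactivator SRC1 peptide in presence of estradiol agonist; inhibitors block coactivator peptide binding and lower the FRET signal.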
Test [5] deals with T1, Sentrin-specific protease 6 (Homo sapiens, UniProt Q9GZR1).
T1 sequence (Q9GZR1 whole entry): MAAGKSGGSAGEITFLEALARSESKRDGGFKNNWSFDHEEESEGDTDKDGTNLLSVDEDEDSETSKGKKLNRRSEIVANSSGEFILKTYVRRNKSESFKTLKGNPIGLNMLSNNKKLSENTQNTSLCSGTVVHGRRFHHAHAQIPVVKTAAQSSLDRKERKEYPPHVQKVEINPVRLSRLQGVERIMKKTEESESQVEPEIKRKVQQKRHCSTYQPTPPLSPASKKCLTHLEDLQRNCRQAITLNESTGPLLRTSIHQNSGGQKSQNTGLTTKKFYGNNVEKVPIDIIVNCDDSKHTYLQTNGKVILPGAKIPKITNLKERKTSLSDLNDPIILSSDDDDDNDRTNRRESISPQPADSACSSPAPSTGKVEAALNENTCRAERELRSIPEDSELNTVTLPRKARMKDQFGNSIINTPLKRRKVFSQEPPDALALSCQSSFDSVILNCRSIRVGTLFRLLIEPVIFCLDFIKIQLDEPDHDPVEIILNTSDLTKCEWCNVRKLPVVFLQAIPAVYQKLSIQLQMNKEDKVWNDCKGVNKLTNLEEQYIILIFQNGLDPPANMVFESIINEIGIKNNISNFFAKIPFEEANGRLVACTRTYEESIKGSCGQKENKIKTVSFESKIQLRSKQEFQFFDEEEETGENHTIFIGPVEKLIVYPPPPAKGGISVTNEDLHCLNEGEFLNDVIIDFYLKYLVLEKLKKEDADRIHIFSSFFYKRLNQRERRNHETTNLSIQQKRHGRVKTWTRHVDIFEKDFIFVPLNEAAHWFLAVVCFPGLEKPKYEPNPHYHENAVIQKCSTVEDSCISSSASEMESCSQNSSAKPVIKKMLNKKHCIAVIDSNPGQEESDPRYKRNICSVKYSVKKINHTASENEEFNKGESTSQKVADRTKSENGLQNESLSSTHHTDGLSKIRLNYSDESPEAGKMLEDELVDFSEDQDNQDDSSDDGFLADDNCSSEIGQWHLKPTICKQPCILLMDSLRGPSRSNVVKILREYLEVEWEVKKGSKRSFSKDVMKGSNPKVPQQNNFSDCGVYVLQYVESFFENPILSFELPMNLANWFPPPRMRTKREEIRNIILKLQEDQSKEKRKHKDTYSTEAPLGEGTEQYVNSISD
In kind it is functional.

For test [6], the target named is T2, Estrogen receptor (Homo sapiens, UniProt P03372).
T2 sequence (P03372 whole entry): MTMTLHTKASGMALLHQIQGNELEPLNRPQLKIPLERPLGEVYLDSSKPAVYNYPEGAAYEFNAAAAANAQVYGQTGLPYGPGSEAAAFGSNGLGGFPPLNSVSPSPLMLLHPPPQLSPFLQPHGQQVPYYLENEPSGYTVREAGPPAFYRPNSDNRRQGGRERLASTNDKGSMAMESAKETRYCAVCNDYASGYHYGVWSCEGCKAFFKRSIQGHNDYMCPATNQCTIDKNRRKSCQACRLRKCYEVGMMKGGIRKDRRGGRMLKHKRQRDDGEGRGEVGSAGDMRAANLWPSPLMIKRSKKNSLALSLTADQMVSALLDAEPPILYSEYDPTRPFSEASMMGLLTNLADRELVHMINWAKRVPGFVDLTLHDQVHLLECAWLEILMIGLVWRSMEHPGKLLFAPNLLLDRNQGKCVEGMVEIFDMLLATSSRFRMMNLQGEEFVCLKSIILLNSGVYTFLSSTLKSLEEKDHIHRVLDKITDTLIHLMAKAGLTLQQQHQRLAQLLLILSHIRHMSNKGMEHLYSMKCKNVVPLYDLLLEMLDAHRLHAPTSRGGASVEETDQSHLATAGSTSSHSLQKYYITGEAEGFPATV

Test [7] concerns the target T3, Oxysterols receptor LXR-beta (Homo sapiens, UniProt P55055).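 Further: Cell-based luminescence dose-response assay of agonist activity at LXR, run as a confirmatory counterscreen to a daf-12 agonist screen; HEK293 cells with Gal4-LXR fusion and GAL4-driven luciferase reporter; agonist potency from rising luciferase signal of a Gal4-LXR reporter.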
T3 sequence (P55055 whole entry): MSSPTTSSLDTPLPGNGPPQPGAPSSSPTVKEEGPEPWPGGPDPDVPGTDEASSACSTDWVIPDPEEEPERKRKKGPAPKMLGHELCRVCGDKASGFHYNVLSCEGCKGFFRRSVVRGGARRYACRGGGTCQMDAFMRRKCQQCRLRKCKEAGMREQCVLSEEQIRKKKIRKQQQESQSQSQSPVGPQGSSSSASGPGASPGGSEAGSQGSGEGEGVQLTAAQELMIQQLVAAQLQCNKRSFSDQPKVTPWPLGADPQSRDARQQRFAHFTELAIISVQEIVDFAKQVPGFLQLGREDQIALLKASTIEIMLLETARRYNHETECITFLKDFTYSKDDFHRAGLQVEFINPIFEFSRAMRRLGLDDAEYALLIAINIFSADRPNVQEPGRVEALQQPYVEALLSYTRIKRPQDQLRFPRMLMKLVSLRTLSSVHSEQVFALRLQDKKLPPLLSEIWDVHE
In kind it is functional, cell-based.

For test [8], the target named is Aurora kinase A (Homo sapiens, UniProt O14965). In kind it is functional.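 Further: value from the Navigating the Kinome kinase panel profiling, panel entry STK6.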
For test [9], the target named is Activated CDC42 kinase 1 (Homo sapiens, UniProt Q07912). Briefly: Navigating the Kinome. Panel member name: ACK1. In kind it is functional.
Test [10] has as its target Tyrosine-protein kinase ABL1 (Homo sapiens, UniProt P00519). In kind it is functional.
Test [11] deals with Dual specificity mitogen-activated protein kinase kinase 1 (Homo sapiens, UniProt Q02750). Briefly: Navigating the Kinome. Panel member name: MAP2K1. In kind it is functional.
Test [12] concerns the target Cyclin-dependent kinase 7 (Homo sapiens, UniProt P50613). In kind it is functional.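 Further: value comes from a kinome-wide kinase profiling panel in which CDK7 is one member.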
The target in test [13] is Dual specificity tyrosine-phosphorylation-regulated kinase 1A (Homo sapiens, UniProt Q13627). In kind it is functional.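 Further: measured against DYRK1A as one member of a broad kinome profiling panel.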
The target in test [14] is Macrophage colony-stimulating factor 1 receptor (Homo sapiens, UniProt P07333). In kind it is functional.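 Further: value comes from the Navigating the Kinome screening panel, CSF1R member.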
The target in test [15] is ALK tyrosine kinase receptor (Homo sapiens, UniProt Q9UM73). In kind it is functional.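 Further: ALK tested as one member of a kinase panel screen.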
The target of test [16] is Proto-oncogene tyrosine-protein kinase receptor Ret (Homo sapiens, UniProt P07949). In kind it is functional.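 Further: measured within a kinome-wide profiling panel, RET as the panel member.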

Chain of Macrophage colony-stimulating factor 1 receptor (P07333 whole entry): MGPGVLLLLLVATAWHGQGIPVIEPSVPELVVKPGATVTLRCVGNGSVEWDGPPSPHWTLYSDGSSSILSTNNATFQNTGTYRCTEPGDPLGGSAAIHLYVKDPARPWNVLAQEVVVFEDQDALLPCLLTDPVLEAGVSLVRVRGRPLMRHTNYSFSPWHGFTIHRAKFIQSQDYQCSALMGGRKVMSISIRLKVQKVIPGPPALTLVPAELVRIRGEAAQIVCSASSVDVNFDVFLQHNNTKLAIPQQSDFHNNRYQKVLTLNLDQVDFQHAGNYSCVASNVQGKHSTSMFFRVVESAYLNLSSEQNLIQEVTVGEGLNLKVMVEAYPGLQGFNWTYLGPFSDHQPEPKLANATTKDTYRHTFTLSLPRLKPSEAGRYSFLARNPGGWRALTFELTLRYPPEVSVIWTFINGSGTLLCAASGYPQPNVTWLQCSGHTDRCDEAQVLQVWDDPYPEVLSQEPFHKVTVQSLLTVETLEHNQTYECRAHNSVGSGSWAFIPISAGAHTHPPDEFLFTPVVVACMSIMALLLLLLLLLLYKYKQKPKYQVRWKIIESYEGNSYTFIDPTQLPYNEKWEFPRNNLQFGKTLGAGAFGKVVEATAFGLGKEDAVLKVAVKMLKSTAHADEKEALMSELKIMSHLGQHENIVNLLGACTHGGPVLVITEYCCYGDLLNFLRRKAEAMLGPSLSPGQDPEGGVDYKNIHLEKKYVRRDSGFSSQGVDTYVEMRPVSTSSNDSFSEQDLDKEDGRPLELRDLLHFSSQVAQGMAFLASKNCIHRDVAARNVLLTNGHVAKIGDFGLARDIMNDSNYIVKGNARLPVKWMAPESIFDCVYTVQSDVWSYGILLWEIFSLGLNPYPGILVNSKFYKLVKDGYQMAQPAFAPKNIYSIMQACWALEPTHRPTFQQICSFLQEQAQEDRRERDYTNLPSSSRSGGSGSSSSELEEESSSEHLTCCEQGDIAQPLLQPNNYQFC
Chain of Tyrosine-protein kinase ABL1 (P00519 whole entry): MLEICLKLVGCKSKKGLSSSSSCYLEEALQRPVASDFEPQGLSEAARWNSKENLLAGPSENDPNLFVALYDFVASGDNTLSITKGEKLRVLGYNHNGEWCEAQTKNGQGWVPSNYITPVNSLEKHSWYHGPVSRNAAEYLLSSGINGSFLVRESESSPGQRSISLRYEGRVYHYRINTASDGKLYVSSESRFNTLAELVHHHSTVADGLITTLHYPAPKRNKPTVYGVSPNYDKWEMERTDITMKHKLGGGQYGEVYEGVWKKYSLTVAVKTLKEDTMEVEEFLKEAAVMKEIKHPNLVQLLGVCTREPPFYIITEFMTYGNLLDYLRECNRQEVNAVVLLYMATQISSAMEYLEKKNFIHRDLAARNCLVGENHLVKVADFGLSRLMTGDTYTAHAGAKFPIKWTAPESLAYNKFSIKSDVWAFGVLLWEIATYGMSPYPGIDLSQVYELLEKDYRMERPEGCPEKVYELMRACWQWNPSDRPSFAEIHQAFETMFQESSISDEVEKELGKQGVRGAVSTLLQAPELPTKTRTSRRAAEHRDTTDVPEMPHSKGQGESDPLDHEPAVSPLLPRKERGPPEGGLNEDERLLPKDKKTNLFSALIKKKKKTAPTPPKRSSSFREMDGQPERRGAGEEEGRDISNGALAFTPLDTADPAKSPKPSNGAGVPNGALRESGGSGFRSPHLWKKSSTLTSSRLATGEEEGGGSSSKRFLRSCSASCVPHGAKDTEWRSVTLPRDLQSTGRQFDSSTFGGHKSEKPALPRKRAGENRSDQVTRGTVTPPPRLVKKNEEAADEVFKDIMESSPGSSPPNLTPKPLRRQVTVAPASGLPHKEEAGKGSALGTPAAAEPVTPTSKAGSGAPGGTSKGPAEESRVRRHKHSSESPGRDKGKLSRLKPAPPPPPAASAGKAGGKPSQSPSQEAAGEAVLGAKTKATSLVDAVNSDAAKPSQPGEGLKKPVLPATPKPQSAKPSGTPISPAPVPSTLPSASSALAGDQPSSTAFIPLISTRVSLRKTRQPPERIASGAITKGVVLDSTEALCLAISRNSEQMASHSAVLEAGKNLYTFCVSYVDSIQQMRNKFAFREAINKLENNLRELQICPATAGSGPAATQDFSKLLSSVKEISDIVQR
Chain of ALK tyrosine kinase receptor (Q9UM73 whole entry): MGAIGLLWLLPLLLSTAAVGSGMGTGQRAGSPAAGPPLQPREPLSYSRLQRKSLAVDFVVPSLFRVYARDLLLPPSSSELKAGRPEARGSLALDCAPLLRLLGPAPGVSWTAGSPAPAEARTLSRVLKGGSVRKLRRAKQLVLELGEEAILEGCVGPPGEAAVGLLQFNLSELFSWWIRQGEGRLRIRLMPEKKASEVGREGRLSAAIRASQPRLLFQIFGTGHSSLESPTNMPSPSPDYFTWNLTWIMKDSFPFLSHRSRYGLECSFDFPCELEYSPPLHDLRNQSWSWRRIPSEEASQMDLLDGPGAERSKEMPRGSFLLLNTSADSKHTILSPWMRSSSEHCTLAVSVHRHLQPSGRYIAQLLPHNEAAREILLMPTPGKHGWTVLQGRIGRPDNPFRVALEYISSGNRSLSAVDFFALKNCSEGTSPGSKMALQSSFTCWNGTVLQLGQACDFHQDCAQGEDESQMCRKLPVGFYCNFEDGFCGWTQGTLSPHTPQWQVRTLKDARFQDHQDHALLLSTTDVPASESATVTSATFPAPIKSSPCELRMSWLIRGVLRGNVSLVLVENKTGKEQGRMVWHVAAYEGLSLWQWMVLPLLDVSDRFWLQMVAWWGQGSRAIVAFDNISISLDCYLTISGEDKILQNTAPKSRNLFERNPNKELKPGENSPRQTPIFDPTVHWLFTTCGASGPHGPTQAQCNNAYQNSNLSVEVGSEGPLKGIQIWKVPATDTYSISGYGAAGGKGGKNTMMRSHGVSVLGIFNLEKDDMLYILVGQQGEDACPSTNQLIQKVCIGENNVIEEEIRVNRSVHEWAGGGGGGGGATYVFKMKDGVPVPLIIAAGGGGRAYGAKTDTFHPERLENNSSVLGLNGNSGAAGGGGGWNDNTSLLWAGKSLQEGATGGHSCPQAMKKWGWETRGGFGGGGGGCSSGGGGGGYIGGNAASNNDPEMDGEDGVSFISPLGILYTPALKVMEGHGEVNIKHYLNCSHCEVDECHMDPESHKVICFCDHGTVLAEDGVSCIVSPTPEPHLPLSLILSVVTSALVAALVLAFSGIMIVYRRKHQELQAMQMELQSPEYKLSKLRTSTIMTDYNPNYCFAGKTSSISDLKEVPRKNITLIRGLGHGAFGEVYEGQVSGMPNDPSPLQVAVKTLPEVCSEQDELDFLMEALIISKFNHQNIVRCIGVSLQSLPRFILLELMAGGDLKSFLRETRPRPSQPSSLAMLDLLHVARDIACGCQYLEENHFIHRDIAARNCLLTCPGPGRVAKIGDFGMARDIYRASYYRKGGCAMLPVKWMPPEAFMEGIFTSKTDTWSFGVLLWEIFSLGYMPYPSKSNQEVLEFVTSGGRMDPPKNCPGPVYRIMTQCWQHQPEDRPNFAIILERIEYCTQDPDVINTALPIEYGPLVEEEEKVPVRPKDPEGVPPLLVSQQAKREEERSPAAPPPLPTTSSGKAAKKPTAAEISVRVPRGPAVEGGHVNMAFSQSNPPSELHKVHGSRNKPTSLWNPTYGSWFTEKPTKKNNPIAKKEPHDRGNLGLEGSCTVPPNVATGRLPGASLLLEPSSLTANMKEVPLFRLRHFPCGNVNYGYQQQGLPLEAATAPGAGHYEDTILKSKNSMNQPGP
Chain of Aurora kinase A (O14965 whole entry): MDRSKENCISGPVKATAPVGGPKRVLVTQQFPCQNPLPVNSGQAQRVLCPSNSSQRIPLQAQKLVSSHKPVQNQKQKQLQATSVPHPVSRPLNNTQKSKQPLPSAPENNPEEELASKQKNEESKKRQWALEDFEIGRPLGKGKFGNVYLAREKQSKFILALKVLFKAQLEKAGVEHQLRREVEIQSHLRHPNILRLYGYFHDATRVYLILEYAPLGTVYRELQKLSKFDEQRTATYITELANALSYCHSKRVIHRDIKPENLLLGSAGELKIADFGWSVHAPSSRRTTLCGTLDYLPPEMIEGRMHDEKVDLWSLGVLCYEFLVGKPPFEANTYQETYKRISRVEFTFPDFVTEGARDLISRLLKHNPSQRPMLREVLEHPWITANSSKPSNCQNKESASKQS
Chain of Cyclin-dependent kinase 7 (P50613 whole entry): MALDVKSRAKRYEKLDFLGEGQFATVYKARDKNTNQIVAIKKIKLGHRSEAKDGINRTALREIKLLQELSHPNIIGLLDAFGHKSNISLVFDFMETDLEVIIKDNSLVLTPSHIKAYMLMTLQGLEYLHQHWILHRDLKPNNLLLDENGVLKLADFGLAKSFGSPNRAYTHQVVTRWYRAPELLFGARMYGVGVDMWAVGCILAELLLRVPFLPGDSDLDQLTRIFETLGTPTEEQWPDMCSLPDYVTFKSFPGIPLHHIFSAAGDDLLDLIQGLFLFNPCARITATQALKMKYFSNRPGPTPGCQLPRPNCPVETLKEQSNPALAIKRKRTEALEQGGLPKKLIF
Chain of Estrogen receptor beta (Q92731 whole entry): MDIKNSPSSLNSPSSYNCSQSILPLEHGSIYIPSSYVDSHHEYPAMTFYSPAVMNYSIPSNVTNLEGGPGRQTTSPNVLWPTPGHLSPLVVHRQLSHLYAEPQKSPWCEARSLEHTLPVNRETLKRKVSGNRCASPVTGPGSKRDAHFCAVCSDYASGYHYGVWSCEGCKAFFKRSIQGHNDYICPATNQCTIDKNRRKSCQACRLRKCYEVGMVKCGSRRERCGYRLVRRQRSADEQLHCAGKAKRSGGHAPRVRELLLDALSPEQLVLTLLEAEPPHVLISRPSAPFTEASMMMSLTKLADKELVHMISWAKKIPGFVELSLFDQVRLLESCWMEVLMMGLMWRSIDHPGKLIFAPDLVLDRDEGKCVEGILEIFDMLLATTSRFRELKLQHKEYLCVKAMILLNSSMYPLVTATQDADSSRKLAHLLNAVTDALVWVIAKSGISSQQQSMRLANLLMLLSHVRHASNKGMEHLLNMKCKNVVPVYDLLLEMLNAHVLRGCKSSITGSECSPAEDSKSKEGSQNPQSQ

Turning to `CN1CCN(C(c2ccc(C(F)(F)F)cc2)c2cc(Cl)c3cccnc3c2O)CC1` (stereo unspecified), the half-maximal effective concentration (EC50) in test [1] was 10.9 µM (inconclusive); in test [2], 8.87 µM (active). Also, in test [3], the IC50 was > 119 µM (inactive).
In the case of `NC(=O)c1c(NC(=O)c2cc3ccccc3o2)sc2c1CCC2`, the IC50 in [4] was > 50 µM (not active); in test [5] it was 17.2 µM (active); in [6], 23.5 µM (active). In addition, in test [7], the EC50 is > 67.5 µM (inactive).
Turning to `O=C(NC(CCO)c1ccccc1)c1ccc(-c2ccncc2)cc1` (stereo unspecified), the Ki in test [8] is > 1.58 µM (inactive); in test [9] it was > 3.98 µM (inactive); in test [10] it was > 3.98 µM (inactive); in test [11] it was > 3.16 µM (inactive); in test [12], > 3.98 µM (inactive); in test [13], > 2 µM (inactive). The Ki in [14] is > 2.51 µM (inactive); in test [15], > 6.31 µM (inactive); in [16], > 3.16 µM (inactive).

Source of the values: ChEMBL document CHEMBL1201862, “PubChem BioAssay data set” (2004).
